Results from patent publication US20240148682A1, “METHOD FOR REGULATING DOWNSTREAM SIGNALING PATHWAY MEDIATED BY ACTIVATION OF TRIMETHYLAMINE-N-OXIDE” (China Medical University, priority 2022, published 2024).

Key:
miR-221 = assay: Quantitative PCR of miR-221 expression in hEPCs; assay type: cell-based, human; details: for inhibiting the expression of miR-221: trimethylamine-N-oxide 300 μM, 125 μM DHA (embodiment 3) or EPA (embodiment 6), 24 hours, compared with comparison group 1
Experimental: To analyze the effects of the omega-3 polyunsaturated fatty in inhibiting the inflammatory responses induced by the activation of the trimethylamine-N-oxide, human endothelial progenitor cells are cultured in the MCDB-131 medium supplemented with the 10% fetal bovine serum and the EGM™-2 growth kit and are administered separately with reagent formulations of the control group 1, the comparison group 1, and the embodiments 1 to 6 shown in Table 1. After the culture time of 24 hours has elapsed, the expressions of cytokines related to the inflammatory responses in the human endothelial progenitor cells are analyzed by enzyme-linked immunosorbent assay (ELISA) and quantitative PCR (qPCR) so as to evaluate the effects of the omega-3 polyunsaturated fatty acids in inhibiting the inflammatory responses mediated by the activation of the trimethylamine-N-oxide. Each experiment is repeated 3 times.
In detail, according to the previous studies, miRNA-221 (“miR-221” hereafter) plays an essential role in the physiological metabolism of the human endothelial progenitor cells. […] Therefore, the present disclosure uses the quantitative PCR and the enzyme-linked immunosorbent assay to analyze the expressions of miR-221 and IL-6 in the human endothelial progenitor cells of the control group 1, the comparison group 1, and the embodiments 1 to 6 after cell culture for 24 hours so as to evaluate the effects of the omega-3 polyunsaturated fatty acids in inhibiting the inflammatory responses induced by the activation of the trimethylamine-N-oxide.
Furthermore, the operation details of the quantitative PCR and the enzyme-linked immunosorbent assay are well-known in the art and can be adjusted according to the experimental requirements, so the detailed steps thereof will not be described herein again.

[1] = test system: human endothelial progenitor cells; assay: GSH/GSSG ratio in hEPCs by liquid chromatography, electrospray ionization, mass spectrometry; assay type: cell-based; details: SCF 20 ng/mL, trimethylamine-N-oxide 300 μM (comparison group 3) vs SCF alone (comparison group 2), p<0.05
Experimental: (§1) To analyze the effects of the omega-3 polyunsaturated fatty acids in alleviating the impairment of neovascularization induced by the activation of the trimethylamine-N-oxide, human endothelial progenitor cells are cultured in the MCDB-131 medium containing the EGM™-2 growth kit and the 10% fetal bovine serum in a Matrigel-coated 96-well plate. Then, the human endothelial progenitor cells are administered separately with reagent formulations of the control group 2, the comparison groups 2 to 3, and the embodiments 7 to 9 shown in Table 2, and incubated in an incubator at 37° C. for 8 hours.
(§2) After the culture time of 8 hours has elapsed, the human endothelial progenitor cells are fixed in glutaraldehyde/paraformaldehyde solution and treated with Calcein-AM solution so as to detect the fluorescent signals of different groups. The proteins of the human endothelial progenitor cells are extracted and analyzed by the Western blot analysis to confirm the expressions of factors related to the Akt/eNOS signaling pathway, the MAPK/ERK signaling pathway and the expression of gamma-glutamylcysteine synthetase (“γ-GCS” hereafter), wherein the γ-GCS participates in the synthesis of GSH. The GSH/GSSG ratios in the human endothelial progenitor cells are analyzed by using the liquid chromatography, the electrospray ionization, and the mass spectrometry. Each experiment is repeated 3 times. […]

[2] = test system: Akt/eNOS signaling pathway and MAPK/ERK signaling pathway; assay: Western blot of factors of the Akt/eNOS and MAPK/ERK signaling pathways in SCF-treated hEPCs; assay type: cell-based, human; details: SCF 20 ng/mL, trimethylamine-N-oxide 300 μM (comparison group 3) vs SCF alone (comparison group 2), 8 hours
Experimental: as §1, §2

[3] = test system: human endothelial progenitor cells; assay: Neovasculogenesis index of hEPCs on Matrigel (Calcein-AM); assay type: cell-based; details: SCF 20 ng/mL, trimethylamine-N-oxide 300 μM (comparison group 3) vs SCF alone (comparison group 2), p<0.05
Experimental: as §1
After the culture time of 8 hours has elapsed, the human endothelial progenitor cells are fixed in glutaraldehyde/paraformaldehyde solution and treated with Calcein-AM solution so as to detect the fluorescent signals of different groups. The proteins of the human endothelial progenitor cells are extracted and analyzed by the Western blot analysis to confirm the expressions of factors related to the Akt/eNOS signaling pathway, the MAPK/ERK signaling pathway and the expression of gamma-glutamylcysteine synthetase (“γ-GCS” hereafter), wherein the γ-GCS participates in the synthesis of GSH. The GSH/GSSG ratios in the human endothelial progenitor cells are analyzed by using the liquid chromatography, the electrospray ionization, and the mass spectrometry. Each experiment is repeated 3 times.

CC/C=C\C/C=C\C/C=C\C/C=C\C/C=C\CCCC(=O)O [EPA, eicosapentaenoic acid]
inhibiting the expression of miR-221 (miR-221): 75%

C[N+](C)(C)[O-] [trimethylamine-N-oxide, Trimethylamine-N-oxide]
GSH/GSSG ratio [1]: significantly lower | expressions of p-Akt, p-eNOS, and p-ERK1/2 [2]: lower | neovasculogenesis index [3]: significantly lower | expression of miR-221 (miR-221; trimethylamine-N-oxide 300 μM alone (comparison group 1) vs control group 1, 24 hours): significantly higher

CC/C=C\C/C=C\C/C=C\C/C=C\C/C=C\C/C=C\CCC(=O)O [DHA, docosahexaenoic acid]
inhibiting the expression of miR-221 (miR-221): 85%
